Values of other authors, collected in patent US12728106B2, “Multiparticulate pharmaceutical composition of tamsulosin and solifenacin” (priority 2020, dated 2026).
Read-outs that look alike come from different tables or passages of the source.

| SMILES | Solubility in dimethyl sulfoxide (room temperature, dimethyl sulfoxide) | Solubility in glacial acetic acid (room temperature, glacial acetic acid) | Solubility in methanol (room temperature, methanol) | Solubility in water (room temperature) | Solubility in water |
| --- | --- | --- | --- | --- | --- |
| O=C(O[C@H]1CN2CCC1CC2)N1CCc2ccccc2[C@@H]1c1ccccc1 [Solifenacin succinate, butanedioic acid compound with (1S)-(3R)-1-azabicyclo[2.2.2]oct-3-yl 3,4-dihydro-1-phenyl-2(1H)-iso-quinolinecarboxylate (1:1)] | freely soluble | freely soluble | freely soluble | freely soluble | – |
| CCOc1ccccc1OCCN[C@H](C)Cc1ccc(OC)c(S(N)(=O)=O)c1.Cl [Tamsulosin hydrochloride, (−)-(R)-5-[2-[[2-(o-Ethoxyphenoxy)ethyl]amino]propyl]-2methoxybenzenesulfonamide, monohydrochloride] | – | – | – | – | sparingly soluble |
